# Data from patent US20140076194A1, “ANTIFOULING BY ADHESION SUPPRESSION” (PURDUE RESEARCH FOUNDATION, priority 2011, published 2014).
# How the values were obtained:
# mussel = test: Mussel plaque adhesion to coated plates (Instron tensile pull of individual plaques); assay type: in vivo; parameters: Total Animal Removal Force: unit not given here; settings: for total animal removal force (in words): Tables 4A and 4B, upon addition of antioxidant, versus DBT control; for force to detach animal: estimated from number of plaques and adhesion per plaque, primer control ~5.6 N; for # of plaques (average): primer control 11.3; for mussel adhesion (in words): antioxidant or reducing agent in coating
# From the text: In order to obtain insights on the antifouling potential of a given coating, we would benefit from a rapid laboratory method to quantify adhesion. Coatings that show decreased adhesion in such a laboratory test can then be sent to other investigators for assays with different organisms as well as field testing. We have recently developed a method for determining the adhesion strength of mussels to surfaces. The adhesive system of mussels lends itself well to precise force measurements. Mussels are placed on a candidate coating for adhesive deposition. The area (m^2) of each plaque is determined by digital photography and use of image analysis software. Individual plaques are then pulled from the surface using clamps in an Instron materials testing system (as illustrated in FIG. 3). […] Beyond simply looking for new antifouling coatings to decrease mussel adhesion, we also take note of the adhesive failure modes on new coatings versus controls. […] Thread breakage is also possible but minimized to nearly zero with our adhesion method. When mussels adhere strongly to a given surface, more cohesive failure is often observed or a mix of both cohesive and adhesive failure. If we inhibit curing of the glue with radical inhibitors on the surface, we may find that more adhesive or cohesive failure is observed. Overall, use of this mussel adhesion assay provides quantitative data on the ability of a candidate antifouling coating to inhibit bioadhesion. Here we will use this assay on each coating. Coatings that decrease mussel adhesion substantially will be carried on to further testing. As an operative example, the animal adheres to a given surface (e.g., aluminum plate). […] The animal is removed by cutting the connecting threads at the shell line. At this point, we are left with the surface, an adhesive plaque, and the thread. Adhesion forces must be normalized for surface contact area. Complete adhesion measurement methods includes obtaining data on the plaque-surface contact area. Mussel plaques are typically not perfect circles or ovals. The small size (approximately 2 mm diameter) and irregular shape may complicate obtaining accurate areas. Prior to adhesive testing, a photograph is taken of the plaque. A Nikon (Melville, N.Y., USA) […] digital camera fitted with a Nikon 50 mm f-1.8 lens and a Kenko 12 mm extension tube is held on a small tripod while the lens is oriented directly onto the plate below. The lens is approximately 18 cm above the plates being photographed. Typical exposure settings include f=3.5, 1/15 second shutter speed, and 200 ISO. Ambient light should be sufficient to capture the images. Photographs are taken in JPEG format at maximum resolution ( 3.3 MB per image). Individual plaques are numbered using a marker prior to taking the photograph so that the numbers are included in the image. These labels allow correlation of specific plaques to tensile strength data. At the time of photographing the plaques, area standards are also photographed. The digital images of the plates can be later revisited for calculating surface area. Image analysis software counts pixels within the plaque, relative to a standard, to provide area (m^2). […] Plates bearing plaques and threads are clamped to the base of the Instronl 5544 materials testing system. A custom designed stainless steel base is fabricated for these experiments. The base is a circular platform 15 cm in diameter with a post and pinhole on the bottom, allowing bolting into the bottom mount of the Instron. Test plates with adhesive are fastened to this base with two Quick-Grip Handi Clamps (Wilmington, Ohio, USA) holding down opposite corners. The Instron is fitted with one screw-action grip (part 2710-004) on the top and a 5N load cell. Detachment force measurements begin by lowering the grips directly over an individual plaque. The thread is lifted by hand and is placed in between the grips. The grips are then tightened over the thread. […]
# [1] = Water contact angle of coatings; assay type: physicochemical; settings: metal primer coating with BHT; metal primer coating alone approximately 106°
# Description: In some cases added solvent helps the dissolution. We use the same solvent already in the commercial coating (e.g., xylenes or acetone). After curing is complete, the resulting coating is inspected and compared to the control of a similar coating without the adhesion inhibitor. If we observe a lack of curing, crystallization of inhibitors on the surface, lower coating modulus, or color changes the formulation may be discarded from consideration. Water contact angles are then measured for both the coatings and all controls (e.g., coating without inhibitor). Typically the coatings have very similar water contact angles as the controls (e.g., similar to within ˜5°). Large differences in contact angles will also lead to discarding a candidate antifouling formulation. A further narrowing of candidate coatings then takes place. We examine water contact angles (i.e., surface energy) of the evaporative coatings with an antioxidant versus without an added inhibitor. Any coatings with added inhibitor that changes water contact angle by more than 5° may be eliminated from further testing. […] It is envisioned that these modifications are not indicative of whether a particular reductive coating is an effective antifouling coating. […] As part of this selection process, we have approximately twenty (20) coatings to examine, into which we could place approximately eight (8) different antioxidants.
# [2] = 2.5% additive in primer, Table 4B
# [3] = 25% additive in primer, Table 4A
# [4] = 25% additive in primer, Table 4C, recent data with variations versus Table 4A
# [5] = Coating: 2.5% (w/w), Table 5B, FIG. 6
# [6] = Coating: 25% (w/w), Table 5A, FIG. 5
# [7] = primer + 2.5% BHT (w/w) coating, Table 3
# [8] = primer + 25% BHT (w/w) coating, Table 3
SMILES,% Adhesive Failure (mussel; [2]),Adhesive Failure (mussel; [2]),Mean Adhesion (mussel; [2]),Plaques/Mussel (mussel; [2]),Total Animal Removal Force (mussel; [2]),% Adhesive Failure (mussel; [3]),Adhesive Failure (mussel; [3]),Mean Adhesion (mussel; [3]),Plaques/Mussel (mussel; [3]),Total Animal Removal Force (mussel; [3]),Adhesion (mussel; [4]),Average Force (mussel; [4]),Average Adhesion (kPa) with 99% CI (mussel; [5]),Average Adhesion (kPa) with 99% CI (mussel; [6]),total animal removal force (in words) (mussel),mussel adhesion (in words) (mussel),further results
"Cc1cc(C(C)(C)C)c(O)c(C(C)(C)C)c1 [BHT, butylated hydroxytoluene]",66.7%,41.5 kPa,41.5 kPa,17.4,722,44.7%,37.0 kPa,39.5 kPa,11.1,411,37.08 kPa,0.1894 N,87.82 ± 4.98 kPa,90.24 ± 6.84 kPa,decreases significantly,–,"average mussel adhesion (in words) (mussel; 2.5% and 25% BHT-in-primer coatings versus primer-only controls): decreases significantly; total force needed to remove a mussel (in words) (mussel; BHT in the coating, number of plaques combined with adhesion per plaque): drops by up to half; adhesive produced by the animals (in words) (mussel; BHT-containing panels versus primer-only controls): produce less adhesive; force to detach animal (mussel; [7]): ~3.4 N; # of plaques (average) (mussel; [7]): 9.6 plaques; Adhesion (mussel; primer + 2.5% BHT (w/w) coating, Table 3, primer control 184 ± 68 kPa): 135 ± 58 kPa; force to detach animal (mussel; [8]): ~2.2 N; # of plaques (average) (mussel; [8]): 5.2 plaques; Adhesion (mussel; primer + 25% BHT (w/w) coating, Table 3, primer control 184 ± 68 kPa): 110 ± 43 kPa; water contact angle [1]: approximately 108 °"
COc1ccccc1 [anisole],21.1%,42.0 kPa,39.7 kPa,20.1,844,54%,56.8 kPa,59.1 kPa,17.4,988,33.53 kPa,0.1686 N,90.03 ± 8.16 kPa,75.02 ± 5.39 kPa,decreases significantly,reduce mussel adhesion,–
"Cc1cc(C(C)(C)C)c(C)c(C(C)(C)C)c1 [DBT, reference compound]",7.0%,49.3 kPa,45.8 kPa,24.1,1430,31.6%,57.3 kPa,53.1 kPa,17.2,986,47.07 kPa,0.2198 N,80.31 ± 5.08 kPa,106.34 ± 6.74 kPa,–,–,–
"CCOc1ccc2c(c1)C(C)=CC(C)(C)N2 [6-ethoxy, 6-ethoxy-1,2-dihydro-2,2,4-trimethylquinoline]",90.9%,33.6 kPa,33.9 kPa,22.3,749,76.4%,33.7 kPa,34.6 kPa,18.4,620,21.23 kPa,0.0948 N,82.60 ± 4.42 kPa,58.22 ± 6.73 kPa,decreases significantly,reduce mussel adhesion,–
"CC(C)(C)c1cccc(O)c1C(C)(C)C [DTBP, 2,3-di-tert-butylphenol]",17.6%,56.9 kPa,66.5 kPa,30,1707,70.7%,40.4 kPa,42.0 kPa,16.9,683,34.11 kPa,0.1902 N,89.88 ± 8.45 kPa,82.63 ± 5.24 kPa,decreases significantly,reduce mussel adhesion,–
CC(=O)C(=O)O [pyruvic acid],–,–,–,–,–,–,–,–,–,–,–,–,–,–,–,reduce mussel adhesion,–
